Assay results taken from ChEMBL document CHEMBL1201862, “PubChem BioAssay data set” (2004).
Active and inactive are the calls of the source.

Columns and labels:
H9c2 = assay: cells; format: functional, cell-based; details: Rattus norvegicus, H9c2, Myocardium;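 further: confirmatory concentration-response retest of ultra-high-throughput screening hits for modulation of myocardial damage; cell death induced by hydrogen peroxide oxidative stress; compound pretreatment for 60 min then peroxide exposure for 2 h; potency is for protecting the cells against peroxide damage rather than for killing them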
Beta-galactosidase = Beta-galactosidase (Escherichia coli, UniProt Q8VNN2); assay: Dose response counterscreen for EBI2 assay utilizing the enzyme, b-galactosidase.; format: functional
[1] = biological target: T1, Corticotropin-releasing factor receptor 2/Corticotropin-releasing factor-binding protein (Homo sapiens, UniProt P24387+Q13324); assay: Dose Response confirmation of uHTS hits for small molecule antagonists of the CRF-binding protein and CRF-R2 receptor complex.; format: functional; details: read-out: IC50_Mean
T1 sequence (Q13324 whole entry): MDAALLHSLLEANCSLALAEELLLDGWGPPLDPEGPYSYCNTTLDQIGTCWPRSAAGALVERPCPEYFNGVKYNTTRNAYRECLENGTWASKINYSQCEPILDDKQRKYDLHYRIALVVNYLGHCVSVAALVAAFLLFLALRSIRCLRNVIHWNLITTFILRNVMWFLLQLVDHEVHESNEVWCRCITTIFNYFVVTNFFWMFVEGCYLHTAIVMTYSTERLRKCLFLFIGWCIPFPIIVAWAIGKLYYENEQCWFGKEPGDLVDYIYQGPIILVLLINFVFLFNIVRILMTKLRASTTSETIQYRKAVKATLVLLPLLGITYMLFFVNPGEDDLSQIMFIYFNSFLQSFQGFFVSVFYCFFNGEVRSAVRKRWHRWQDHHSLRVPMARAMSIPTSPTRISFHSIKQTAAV
T1 sequence (P24387 whole entry): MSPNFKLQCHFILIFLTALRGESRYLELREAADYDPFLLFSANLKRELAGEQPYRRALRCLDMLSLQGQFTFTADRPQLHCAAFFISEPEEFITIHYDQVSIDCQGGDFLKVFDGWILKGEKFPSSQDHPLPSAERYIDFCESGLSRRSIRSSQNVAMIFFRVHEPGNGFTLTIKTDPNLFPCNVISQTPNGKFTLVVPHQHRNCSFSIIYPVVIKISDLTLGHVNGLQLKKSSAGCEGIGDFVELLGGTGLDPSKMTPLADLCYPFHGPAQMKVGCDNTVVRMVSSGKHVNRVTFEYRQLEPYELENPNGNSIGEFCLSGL

[2] = biological target: T1, Corticotropin-releasing factor receptor 2/Corticotropin-releasing factor-binding protein; assay: activators of CRF receptor 2 with binding protein – uHTS hits, confirmation (AID 602473); format: functional; details: read-out: EC50_Mean
[3] = blockers of CRF-binding protein–CRF-R2 complex – cell-based, uHTS hits, 384-well, dose response (AID 651639); format: functional, Homo sapiens; details: read-out: IC50_Mean
[4] = viability loss in THP-1 monocytes – THP-1 cells, cytotoxicity control for Vif-APOBEC3G degradation inhibitor project, dose response (AID 1117359); format: functional; details: THP-1
[5] = test system: Streptococcus sp. 'group A'; assay: Streptococcus pyogenes SK(-)GAS viability under kanamycin – luminescence, BacTiterGlo, confirmation, counter-screen for streptokinase expression inhibitor project, dose response (AID 1900); format: functional, organism-based
Streptococcus = assay: GAS UMAA2166 growth inhibition – luminescence, BacTiterGlo, counter-screen for streptokinase expression inhibitor project, dose response (AID 1915); format: functional, organism-based;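 further: potency for reduction of bacterial viability or growth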
Nonstructural protein 1 = Nonstructural protein 1 (Influenza A virus, UniProt Q194T2); format: functional, Influenza A virus (A/California/07/2009(H1N1))
Albumin = Albumin (Bos taurus, UniProt P02769); assay: Counterscreen for inhibitors of T-cell receptor (TCR)-CD3 interaction: Fluorescence-based biochemical high throughput dose response assay to identify inhibitors of T-cell receptor (TCR)-CD3 interaction using a TAMRA-labeled BSA probe.; format: functional
[6] = non-specific 3'UTR reporter inhibition in Clone20-Shn3RL – cell-based, Renilla luciferase, cherry-picked, counter-screen for Shn3 inhibitor project, dose response (AID 624133); format: functional
INS1 = assay: INS-1E survival protection against cytokine death – cell-based, luminescence, retest, dose response (AID 449756); format: functional; details: Rattus norvegicus;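 further: cell death triggered by IL-1 beta plus TNF-alpha plus IFN-gamma mixture; protective hits raise ATP signal compared with cytokine alone wells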
[7] = reduction of Shn3 3'UTR-driven luciferase in osteoblasts – cell-based, Clone20 osteoblasts, firefly luciferase, cherry-picked, dose response (AID 624132); format: functional;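 further: firefly luciferase luminescence from reporter carrying the Shn3 3'UTR in osteoblasts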
[8] = Luminescence Cell-Based Dose Retest to Confirm Inhibitors of Cancer Stem Cells. [Related pubchem assays (depositor defined):AID2717, AID2721]; format: functional; details: Homo sapiens
[9] = loss of viability in HepG2 cells – cell-based, CellTiter-Glo, cherry-picked, cytotoxicity control for Shn3 inhibitor project, dose response (AID 624134); format: functional
Paired box protein Pax-8 = Paired box protein Pax-8 (Homo sapiens, UniProt Q06710); assay: PAX8 transcriptional activity inhibition in RMG-I – RMG-I cells, luciferase, cherry-pick, dose response (AID 687027); format: functional, cell-based;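 further: luciferase reporter driven by Pax8 target thyroperoxidase promoter measured by SteadyGlo luminescence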
[10] = THP-1 cell cytotoxicity, dose response, cytotoxicity control for non-replicating M. tuberculosis project (AID 489025); format: functional
cells [11] = format: functional, cell-based
[12] = biological target: T2, Trace amine-associated receptor 1 (Homo sapiens, UniProt Q96RJ0); assay: Fluorescence-based cell-based high throughput dose response assay to identify agonists of the human trace amine associated receptor 1 (TAAR1).; format: functional
T2 sequence (Q96RJ0 whole entry): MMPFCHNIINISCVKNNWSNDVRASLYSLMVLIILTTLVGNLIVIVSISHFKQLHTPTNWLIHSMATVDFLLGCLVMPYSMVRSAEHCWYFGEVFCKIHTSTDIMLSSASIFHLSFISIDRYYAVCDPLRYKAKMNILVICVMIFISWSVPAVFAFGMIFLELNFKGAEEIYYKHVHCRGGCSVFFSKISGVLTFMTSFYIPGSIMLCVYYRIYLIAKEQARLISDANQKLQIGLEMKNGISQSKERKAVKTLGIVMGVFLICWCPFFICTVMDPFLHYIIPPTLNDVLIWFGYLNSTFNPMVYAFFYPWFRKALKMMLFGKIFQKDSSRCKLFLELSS

cells [13] = format: functional, cell-based; remark: listed apart in the source
[14] = biological target: T2, Trace amine-associated receptor 1; assay: Counterscreen for agonists of the human trace amine associated receptor 1 (hTAAR1): Fluorescence-based cell-based high throughput dose response assay to identify hTAAR1 agonist that also desensitize TAAR1 receptor response.; format: functional

Albumin, sequence (P02769 whole entry): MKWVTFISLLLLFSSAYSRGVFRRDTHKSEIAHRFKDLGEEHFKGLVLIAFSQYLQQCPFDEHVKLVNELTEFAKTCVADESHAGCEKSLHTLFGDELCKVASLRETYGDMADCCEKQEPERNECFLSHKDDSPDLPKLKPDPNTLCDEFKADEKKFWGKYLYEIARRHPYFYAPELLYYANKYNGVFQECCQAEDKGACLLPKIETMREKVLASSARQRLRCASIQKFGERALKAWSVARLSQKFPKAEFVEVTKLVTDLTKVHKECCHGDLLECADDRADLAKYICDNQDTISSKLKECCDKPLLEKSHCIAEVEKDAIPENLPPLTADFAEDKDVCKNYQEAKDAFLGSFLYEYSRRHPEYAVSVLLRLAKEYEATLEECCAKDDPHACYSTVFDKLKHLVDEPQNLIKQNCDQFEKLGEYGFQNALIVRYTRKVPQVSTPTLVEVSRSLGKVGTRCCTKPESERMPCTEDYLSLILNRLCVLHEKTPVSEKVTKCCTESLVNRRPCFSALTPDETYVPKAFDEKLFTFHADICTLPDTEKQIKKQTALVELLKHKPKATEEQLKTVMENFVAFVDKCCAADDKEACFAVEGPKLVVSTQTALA
Beta-galactosidase, sequence (Q8VNN2 whole entry): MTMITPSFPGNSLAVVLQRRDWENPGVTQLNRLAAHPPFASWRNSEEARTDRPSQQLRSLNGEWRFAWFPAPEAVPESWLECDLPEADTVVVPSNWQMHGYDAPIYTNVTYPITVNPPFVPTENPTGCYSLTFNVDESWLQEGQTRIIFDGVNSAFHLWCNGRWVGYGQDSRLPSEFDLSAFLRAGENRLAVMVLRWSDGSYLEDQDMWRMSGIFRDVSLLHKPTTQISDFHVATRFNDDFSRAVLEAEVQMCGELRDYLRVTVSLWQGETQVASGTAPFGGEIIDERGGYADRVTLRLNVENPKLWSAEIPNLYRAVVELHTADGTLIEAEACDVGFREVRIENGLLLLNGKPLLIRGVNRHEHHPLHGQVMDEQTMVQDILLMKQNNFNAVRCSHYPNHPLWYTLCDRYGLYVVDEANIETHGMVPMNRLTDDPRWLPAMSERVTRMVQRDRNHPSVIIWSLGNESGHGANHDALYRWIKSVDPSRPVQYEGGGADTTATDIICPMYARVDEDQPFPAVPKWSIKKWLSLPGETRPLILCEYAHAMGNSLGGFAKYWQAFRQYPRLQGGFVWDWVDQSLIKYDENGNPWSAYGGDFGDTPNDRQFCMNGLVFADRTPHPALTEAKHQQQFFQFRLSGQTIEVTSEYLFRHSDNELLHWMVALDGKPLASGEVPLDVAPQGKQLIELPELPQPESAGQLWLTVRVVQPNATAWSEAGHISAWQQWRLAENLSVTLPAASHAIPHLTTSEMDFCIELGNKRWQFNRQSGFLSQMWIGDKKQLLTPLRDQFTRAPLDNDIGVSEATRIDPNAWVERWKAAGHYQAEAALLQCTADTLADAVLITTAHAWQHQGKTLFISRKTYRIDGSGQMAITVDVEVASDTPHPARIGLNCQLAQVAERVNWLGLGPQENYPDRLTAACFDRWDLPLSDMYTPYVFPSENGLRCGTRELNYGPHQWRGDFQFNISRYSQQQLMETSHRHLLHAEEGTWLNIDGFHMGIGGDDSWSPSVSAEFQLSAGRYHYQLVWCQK
Paired box protein Pax-8, sequence (Q06710 whole entry): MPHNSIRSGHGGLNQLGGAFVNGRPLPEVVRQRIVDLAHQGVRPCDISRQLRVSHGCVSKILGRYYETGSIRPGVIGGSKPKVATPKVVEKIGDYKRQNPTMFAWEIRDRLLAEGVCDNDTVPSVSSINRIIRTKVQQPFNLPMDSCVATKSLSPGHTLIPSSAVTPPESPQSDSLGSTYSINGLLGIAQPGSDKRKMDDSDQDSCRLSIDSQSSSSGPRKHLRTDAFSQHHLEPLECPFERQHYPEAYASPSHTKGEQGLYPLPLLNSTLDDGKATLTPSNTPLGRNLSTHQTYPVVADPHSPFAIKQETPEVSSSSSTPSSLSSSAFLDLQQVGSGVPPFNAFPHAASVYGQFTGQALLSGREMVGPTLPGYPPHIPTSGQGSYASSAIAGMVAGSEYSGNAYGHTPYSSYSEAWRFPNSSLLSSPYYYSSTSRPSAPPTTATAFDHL
Nonstructural protein 1, sequence (Q194T2 whole entry): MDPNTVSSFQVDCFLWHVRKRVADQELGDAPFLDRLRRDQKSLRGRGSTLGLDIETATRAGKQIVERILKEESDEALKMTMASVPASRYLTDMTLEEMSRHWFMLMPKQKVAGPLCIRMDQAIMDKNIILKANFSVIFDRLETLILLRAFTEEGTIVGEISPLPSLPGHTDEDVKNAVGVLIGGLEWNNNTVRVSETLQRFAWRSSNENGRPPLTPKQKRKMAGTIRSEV

O=C(Cn1nc(C(=O)O)c2ccccc2c1=O)c1c[nH]c2ccccc12
IC50 (H9c2): > 79 µM (inactive)
IC50 (Beta-galactosidase): > 80 µM (inactive)

O=C(CC(c1ccccc1)c1ccccc1O)NCc1ccccc1Cl (stereo not given)
IC50 [1]: 2.7 µM (active)
EC50 [2]: > 53 µM (inactive)
IC50 [3]: > 20 µM (inactive)

Nc1c(S(=O)(=O)c2ccccc2)c2nc3ccccc3nc2n1/N=C/c1ccco1
CC50 [4]: > 40 µM (active)
IC50 (Beta-galactosidase): > 80 µM (inactive)

O=C(N/N=C/c1cc([N+](=O)[O-])ccc1O)c1cccc(N2CCCC2=O)c1
EC50 [5]: 0.935 µM (active)
EC50 (Streptococcus): 1.9 µM (active)
IC50 (Nonstructural protein 1): 6.59 µM (active)
IC50 (Albumin): > 94.1 µM (inactive)

c1ccc(CNc2c(-c3cccc(SC4CCCCC4)c3)nc3ccccn23)cc1
AC50 [6]: 6.09 µM (active)
AC50 (INS1): 5.06 µM (active)
AC50 [7]: 3.46 µM (active)
AC50 [8]: 5.29 µM (active)
AC50 [9]: > 70 µM (inactive)

Cc1c(CC(Cl)(Cl)Cl)c2c(n1O)CC(C)(C)CC2=O
IC50 [1]: 2.98 µM (active)
EC50 [2]: 15.9 µM (active)
IC50 [3]: > 20 µM (inactive)

CCC(C)C1NC(=O)C(NC(=O)C(CC(C)C)N(C)C(=O)C2CCCN2C(=O)C(C)O)C(C)OC(=O)C(Cc2ccc(OC)cc2)N(C)C(=O)C2CCCN2C(=O)C(CC(C)C)NC(=O)[C@H](C)C(=O)[C@H](C(C)C)OC(=O)CC1O (stereo not given in full)
AC50 (Paired box protein Pax-8): < 0.26 µM (active)
AC50 [6]: < 0.26 µM (active)
AC50 [7]: < 0.26 µM (active)
AC50 [9]: > 70 µM (inactive)

COc1ccc(C(=O)C=CNNC(=O)c2ccc(Cl)cc2)cc1
CC50 [10]: 15.6 µM (active)
IC50 (Albumin): > 94.1 µM (inactive)

CCc1ccccc1NC(=O)NNC(=O)c1ccc2ccccc2c1O
IC50 (Albumin): > 94.1 µM (inactive)

CN(C)c1ccc(/C=N/CC2COc3ccccc3O2)cc1 (stereo not given)
IC50 (cells [11]): > 29.9 µM (inactive)
EC50 [12]: 4.25 µM (active)
EC50 (cells [13]): > 29.9 µM (inactive)
IC50 [14]: 14.3 µM (inactive)
